Experimental data from patent EP0726263A2, “Herbicidal (1,3,4)oxadiazoles and thiadiazoles” (American Cyanamid Company, priority 1995, dated 1996).

Tests used:
Type in all cases: in vivo
Helianthus annuus [1] = test: Herbicidal activity, postemergence test; details: post; sprayed onto seedling plants, 800 g of active material per hectare; evaluated 2 weeks after treatment
Summary of the method: (§1)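 First, test compound in acetone containing 0.4% Triton X-155 is diluted with water. Next, it is sprayed at 800 g/ha (900 L/ha) onto freshly seeded loam (pre) or onto seedlings (post). Finally, plants are scored 0-9 visually after 3 or 2 weeks, respectively.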

Hordeum vulgare [2] = test: Herbicidal activity, postemergence test; details: post; sprayed onto seedling plants, 800 g of active material per hectare; evaluated 2 weeks after treatment
Summary of the method: as §1

Zea mays [3] = test: Herbicidal activity, postemergence test; details: post; sprayed onto seedling plants, 800 g of active material per hectare; evaluated 2 weeks after treatment
Summary of the method: as §1

Gossypium hirsutum [4] = test: Herbicidal activity, postemergence test; details: post; sprayed onto seedling plants, 800 g of active material per hectare; evaluated 2 weeks after treatment
Summary of the method: as §1

Setaria viridis [5] = test: Herbicidal activity, postemergence test; details: post; sprayed onto seedling plants, 800 g of active material per hectare; evaluated 2 weeks after treatment
Summary of the method: as §1

Viola arvensis [6] = test: Herbicidal activity, postemergence test; details: post; sprayed onto seedling plants, 800 g of active material per hectare; evaluated 2 weeks after treatment
Summary of the method: as §1

Veronica persica [7] = test: Herbicidal activity, postemergence test; details: post; sprayed onto seedling plants, 800 g of active material per hectare; evaluated 2 weeks after treatment
Summary of the method: as §1

Abutilon theophrasti [8] = test: Herbicidal activity, postemergence test; details: post; sprayed onto seedling plants, 800 g of active material per hectare; evaluated 2 weeks after treatment
Summary of the method: as §1

Lamium purpureum [9] = test: Herbicidal activity, postemergence test; details: post; sprayed onto seedling plants, 800 g of active material per hectare; evaluated 2 weeks after treatment
Summary of the method: as §1

Alopecurus myosuroides [10] = test: Herbicidal activity, postemergence test; details: post; sprayed onto seedling plants, 800 g of active material per hectare; evaluated 2 weeks after treatment
Summary of the method: as §1

Echinochloa crus-galli [11] = test: Herbicidal activity, postemergence test; details: post; sprayed onto seedling plants, 800 g of active material per hectare; evaluated 2 weeks after treatment
Summary of the method: as §1

Glycine max [12] = test: Herbicidal activity, postemergence test; details: post; sprayed onto seedling plants, 800 g of active material per hectare; evaluated 2 weeks after treatment
Summary of the method: as §1

Galium aparine [13] = test: Herbicidal activity, postemergence test; details: post; sprayed onto seedling plants, 800 g of active material per hectare; evaluated 2 weeks after treatment
Summary of the method: as §1

Ambrosia artemisifolia [14] = test: Herbicidal activity, postemergence test; details: post; sprayed onto seedling plants, 800 g of active material per hectare; evaluated 2 weeks after treatment
Summary of the method: as §1

Ipomoea hederacea [15] = test: Herbicidal activity, postemergence test; details: post; sprayed onto seedling plants, 800 g of active material per hectare; evaluated 2 weeks after treatment
Summary of the method: as §1

Stellaria media = test: Herbicidal activity, postemergence test; details: post; sprayed onto seedling plants, 800 g of active material per hectare; evaluated 2 weeks after treatment
Summary of the method: as §1

Triticum aestivum [16] = test: Herbicidal activity, postemergence test; details: post; sprayed onto seedling plants, 800 g of active material per hectare; evaluated 2 weeks after treatment
Summary of the method: as §1

Amaranthus retroflexus [17] = test: Herbicidal activity, postemergence test; details: post; sprayed onto seedling plants, 800 g of active material per hectare; evaluated 2 weeks after treatment
Summary of the method: as §1

Helianthus annuus [18] = test: Herbicidal activity, preemergence test; details: pre; sprayed onto soil, 800 g of active material per hectare; evaluated 3 weeks after treatment
Summary of the method: as §1

Hordeum vulgare [19] = test: Herbicidal activity, preemergence test; details: pre; sprayed onto soil, 800 g of active material per hectare; evaluated 3 weeks after treatment
Summary of the method: as §1

Zea mays [20] = test: Herbicidal activity, preemergence test; details: pre; sprayed onto soil, 800 g of active material per hectare; evaluated 3 weeks after treatment
Summary of the method: as §1

Gossypium hirsutum [21] = test: Herbicidal activity, preemergence test; details: pre; sprayed onto soil, 800 g of active material per hectare; evaluated 3 weeks after treatment
Summary of the method: as §1

Setaria viridis [22] = test: Herbicidal activity, preemergence test; details: pre; sprayed onto soil, 800 g of active material per hectare; evaluated 3 weeks after treatment
Summary of the method: as §1

Viola arvensis [23] = test: Herbicidal activity, preemergence test; details: pre; sprayed onto soil, 800 g of active material per hectare; evaluated 3 weeks after treatment
Summary of the method: as §1

Veronica persica [24] = test: Herbicidal activity, preemergence test; details: pre; sprayed onto soil, 800 g of active material per hectare; evaluated 3 weeks after treatment
Summary of the method: as §1

Abutilon theophrasti [25] = test: Herbicidal activity, preemergence test; details: pre; sprayed onto soil, 800 g of active material per hectare; evaluated 3 weeks after treatment
Summary of the method: as §1

Lamium purpureum [26] = test: Herbicidal activity, preemergence test; details: pre; sprayed onto soil, 800 g of active material per hectare; evaluated 3 weeks after treatment
Summary of the method: as §1

Alopecurus myosuroides [27] = test: Herbicidal activity, preemergence test; details: pre; sprayed onto soil, 800 g of active material per hectare; evaluated 3 weeks after treatment
Summary of the method: as §1

Echinochloa crus-galli [28] = test: Herbicidal activity, preemergence test; details: pre; sprayed onto soil, 800 g of active material per hectare; evaluated 3 weeks after treatment
Summary of the method: as §1

Glycine max [29] = test: Herbicidal activity, preemergence test; details: pre; sprayed onto soil, 800 g of active material per hectare; evaluated 3 weeks after treatment
Summary of the method: as §1

Galium aparine [30] = test: Herbicidal activity, preemergence test; details: pre; sprayed onto soil, 800 g of active material per hectare; evaluated 3 weeks after treatment
Summary of the method: as §1

Ambrosia artemisifolia [31] = test: Herbicidal activity, preemergence test; details: pre; sprayed onto soil, 800 g of active material per hectare; evaluated 3 weeks after treatment
Summary of the method: as §1

Ipomoea hederacea [32] = test: Herbicidal activity, preemergence test; details: pre; sprayed onto soil, 800 g of active material per hectare; evaluated 3 weeks after treatment
Summary of the method: as §1

Triticum aestivum [33] = test: Herbicidal activity, preemergence test; details: pre; sprayed onto soil, 800 g of active material per hectare; evaluated 3 weeks after treatment
Summary of the method: as §1

Amaranthus retroflexus [34] = test: Herbicidal activity, preemergence test; details: pre; sprayed onto soil, 800 g of active material per hectare; evaluated 3 weeks after treatment
Summary of the method: as §1

Papaver rhoeas [35] = test: Herbicidal activity, postemergence test; details: post; sprayed onto seedling plants, 800 g of active material per hectare; evaluated 2 weeks after treatment
Summary of the method: as §1

Matricaria inodora [36] = test: Herbicidal activity, postemergence test; details: post; sprayed onto seedling plants, 800 g of active material per hectare; evaluated 2 weeks after treatment
Summary of the method: as §1

Papaver rhoeas [37] = test: Herbicidal activity, preemergence test; details: pre; sprayed onto soil, 800 g of active material per hectare; evaluated 3 weeks after treatment
Summary of the method: as §1

Matricaria inodora [38] = test: Herbicidal activity, preemergence test; details: pre; sprayed onto soil, 800 g of active material per hectare; evaluated 3 weeks after treatment
Summary of the method: as §1

Row | Structure (SMILES) | HELAN control rating (0-9) (Helianthus annuus [1]) | HORVW control rating (0-9) (Hordeum vulgare [2]) | ZEAMX control rating (0-9) (Zea mays [3]) | GOSHI control rating (0-9) (Gossypium hirsutum [4]) | SETVI control rating (0-9) (Setaria viridis [5]) | VIOAR control rating (0-9) (Viola arvensis [6]) | VERPE control rating (0-9) (Veronica persica [7]) | ABUTH control rating (0-9) (Abutilon theophrasti [8]) | LAMPU control rating (0-9) (Lamium purpureum [9]) | ALOMY control rating (0-9) (Alopecurus myosuroides [10]) | GLXMA control rating (0-9) (Glycine max [12]) | GALAP control rating (0-9) (Galium aparine [13]) | IPOHE control rating (0-9) (Ipomoea hederacea [15]) | TRZAW control rating (0-9) (Triticum aestivum [16]) | HELAN control rating (0-9) (Helianthus annuus [18]) | HORVW control rating (0-9) (Hordeum vulgare [19]) | ZEAMX control rating (0-9) (Zea mays [20]) | GOSHI control rating (0-9) (Gossypium hirsutum [21]) | SETVI control rating (0-9) (Setaria viridis [22]) | VIOAR control rating (0-9) (Viola arvensis [23]) | other results
1 | CC(NC(=O)c1nnc(-c2ccccc2)o1)c1cccs1 (racemic) [Example 1] | 9 (complete kill) | 5 (definite injury) | 3 (moderate effect) | 9 (complete kill) | 9 (complete kill) | 9 (complete kill) | 9 (complete kill) | 8 (approaching complete kill) | 4 (injury) | 2 (slight effect) | 8 (approaching complete kill) | 6 (herbicidal effect) | 5 (definite injury) | 2 (slight effect) | 0 (no effect) | 0 (no effect) | 0 (no effect) | 0 (no effect) | 4 (injury) | 6 (herbicidal effect) | ECHCG control rating (0-9) (Echinochloa crus-galli [11]): 6 (herbicidal effect); AMBEL control rating (0-9) (Ambrosia artemisifolia [14]): 8 (approaching complete kill); STEME control rating (0-9) (Stellaria media): 9 (complete kill); AMARE control rating (0-9) (Amaranthus retroflexus [17]): 9 (complete kill); VERPE control rating (0-9) (Veronica persica [24]): 5 (definite injury); ABUTH control rating (0-9) (Abutilon theophrasti [25]): 0 (no effect); LAMPU control rating (0-9) (Lamium purpureum [26]): 7 (good herbicidal effect); ALOMY control rating (0-9) (Alopecurus myosuroides [27]): 0 (no effect); ECHCG control rating (0-9) (Echinochloa crus-galli [28]): 0 (no effect); GLXMA control rating (0-9) (Glycine max [29]): 0 (no effect); GALAP control rating (0-9) (Galium aparine [30]): 0 (no effect); AMBEL control rating (0-9) (Ambrosia artemisifolia [31]): 0 (no effect); IPOHE control rating (0-9) (Ipomoea hederacea [32]): 5 (definite injury); TRZAW control rating (0-9) (Triticum aestivum [33]): 0 (no effect); AMARE control rating (0-9) (Amaranthus retroflexus [34]): 0 (no effect)
2 | C[C@H](NC(=O)c1nnc(N(C)C)o1)c1ccccc1 [Example 6] | 2 (slight effect) | 2 (slight effect) | 0 (no effect) | 2 (slight effect) | 0 (no effect) | 0 (no effect) | 0 (no effect) | 2 (slight effect) | 1 (trace effect) | 2 (slight effect) | 0 (no effect) | 2 (slight effect) | 2 (slight effect) | 1 (trace effect) | 0 (no effect) | 0 (no effect) | 0 (no effect) | 0 (no effect) | 0 (no effect) | 2 (slight effect) | PAPRH control rating (0-9) (Papaver rhoeas [35]): 0 (no effect); MATIN control rating (0-9) (Matricaria inodora [36]): 0 (no effect); PAPRH control rating (0-9) (Papaver rhoeas [37]): 0 (no effect); VERPE control rating (0-9) (Veronica persica [24]): 0 (no effect); ABUTH control rating (0-9) (Abutilon theophrasti [25]): 0 (no effect); LAMPU control rating (0-9) (Lamium purpureum [26]): 0 (no effect); ALOMY control rating (0-9) (Alopecurus myosuroides [27]): 0 (no effect); MATIN control rating (0-9) (Matricaria inodora [38]): 0 (no effect); GLXMA control rating (0-9) (Glycine max [29]): 0 (no effect); GALAP control rating (0-9) (Galium aparine [30]): 0 (no effect); IPOHE control rating (0-9) (Ipomoea hederacea [32]): 0 (no effect); TRZAW control rating (0-9) (Triticum aestivum [33]): 0 (no effect)
